Assay results from article PMC4770715, “LIM kinase inhibitors disrupt mitotic microtubule organization and impair tumor cell proliferation” (Oncotarget, 2015).

Legend:
Assay in all cases: biochemical
Parameters in all cases: KINOMEscan active-site competition binding, percent of control (100 = no competition)
Settings in all cases: competition binding, percent control
[1] = biological target: T1, ABL1(F317I)-nonphosphorylated (Homo sapiens, UniProt P00519, F317I)
T1 construct: nonphosphorylated

ABL1-nonphosphorylated = biological target: T2, ABL1-nonphosphorylated (Homo sapiens, UniProt P00519)
T2 construct: nonphosphorylated

ADCK4 = biological target: T3, ADCK4 (Homo sapiens, UniProt Q96D53)
T3 construct: gene COQ8B

AKT3 = AKT3 (Homo sapiens, UniProt Q9Y243)
AMPK-alpha2 = biological target: T4, AMPK-alpha2 (Homo sapiens, UniProt P54646)
T4 construct: gene PRKAA2

CAMK2B = CAMK2B (Homo sapiens, UniProt Q13554)
EGFR(G719S) = EGFR(G719S) (Homo sapiens, UniProt P00533, G719S)
[2] = biological target: EGFR(L747-S752del, P753S) (Homo sapiens, UniProt P00533, DEL747-752/P753S)
EGFR(L861Q) = EGFR(L861Q) (Homo sapiens, UniProt P00533, L861Q)
INSR = INSR (Homo sapiens, UniProt P06213)
IRAK4 = IRAK4 (Homo sapiens, UniProt Q9NWZ3)
MKNK2 = MKNK2 (Homo sapiens, UniProt Q9HBH9)
NEK7 = NEK7 (Homo sapiens, UniProt Q8TDX7)
PFPK5(P.falciparum) = biological target: T5, PFPK5(P.falciparum) (Plasmodium falciparum, UniProt P61075)
T5 construct: gene CRK2

PIK3CA(E545K) = PIK3CA(E545K) (Homo sapiens, UniProt P42336, E545K)
PRKCE = PRKCE (Homo sapiens, UniProt Q02156)
PRKCI = PRKCI (Homo sapiens, UniProt P41743)
PRKCQ = PRKCQ (Homo sapiens, UniProt Q04759)
PRKG2 = PRKG2 (Homo sapiens, UniProt Q13237)
RET(V804L) = RET(V804L) (Homo sapiens, UniProt P07949, V804L)
S6K1 = biological target: T6, S6K1 (Homo sapiens, UniProt P23443)
T6 construct: gene RPS6KB1

ULK1 = ULK1 (Homo sapiens, UniProt O75385)
Sequence of ULK1 (O75385 whole entry): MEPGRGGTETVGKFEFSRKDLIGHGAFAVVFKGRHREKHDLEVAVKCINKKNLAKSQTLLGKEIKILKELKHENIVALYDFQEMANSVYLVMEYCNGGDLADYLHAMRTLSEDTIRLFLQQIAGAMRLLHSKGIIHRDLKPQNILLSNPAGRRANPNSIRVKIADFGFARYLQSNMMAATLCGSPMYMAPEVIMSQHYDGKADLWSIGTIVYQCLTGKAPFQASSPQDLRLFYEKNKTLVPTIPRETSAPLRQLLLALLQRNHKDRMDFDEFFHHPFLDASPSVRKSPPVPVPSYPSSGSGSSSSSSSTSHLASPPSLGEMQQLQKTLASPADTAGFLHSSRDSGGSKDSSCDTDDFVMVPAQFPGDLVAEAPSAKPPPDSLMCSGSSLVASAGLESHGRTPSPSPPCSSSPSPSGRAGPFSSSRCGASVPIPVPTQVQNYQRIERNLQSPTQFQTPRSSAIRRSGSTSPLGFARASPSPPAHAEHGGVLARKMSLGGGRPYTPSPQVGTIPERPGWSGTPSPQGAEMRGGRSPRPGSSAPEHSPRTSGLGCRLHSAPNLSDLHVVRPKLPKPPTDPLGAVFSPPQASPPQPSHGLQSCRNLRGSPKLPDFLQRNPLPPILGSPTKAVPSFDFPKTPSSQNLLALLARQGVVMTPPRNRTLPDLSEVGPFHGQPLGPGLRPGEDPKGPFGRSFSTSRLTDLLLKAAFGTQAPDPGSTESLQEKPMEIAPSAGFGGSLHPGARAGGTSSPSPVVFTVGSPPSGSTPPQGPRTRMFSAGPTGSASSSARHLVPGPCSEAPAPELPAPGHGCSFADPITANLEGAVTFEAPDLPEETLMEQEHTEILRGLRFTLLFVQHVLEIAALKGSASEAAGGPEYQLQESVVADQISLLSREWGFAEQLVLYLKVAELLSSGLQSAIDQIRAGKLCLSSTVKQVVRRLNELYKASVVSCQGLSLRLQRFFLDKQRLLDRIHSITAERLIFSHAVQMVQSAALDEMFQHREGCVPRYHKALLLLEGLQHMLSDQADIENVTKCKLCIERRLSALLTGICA

Sequence of PRKG2 (Q13237 whole entry): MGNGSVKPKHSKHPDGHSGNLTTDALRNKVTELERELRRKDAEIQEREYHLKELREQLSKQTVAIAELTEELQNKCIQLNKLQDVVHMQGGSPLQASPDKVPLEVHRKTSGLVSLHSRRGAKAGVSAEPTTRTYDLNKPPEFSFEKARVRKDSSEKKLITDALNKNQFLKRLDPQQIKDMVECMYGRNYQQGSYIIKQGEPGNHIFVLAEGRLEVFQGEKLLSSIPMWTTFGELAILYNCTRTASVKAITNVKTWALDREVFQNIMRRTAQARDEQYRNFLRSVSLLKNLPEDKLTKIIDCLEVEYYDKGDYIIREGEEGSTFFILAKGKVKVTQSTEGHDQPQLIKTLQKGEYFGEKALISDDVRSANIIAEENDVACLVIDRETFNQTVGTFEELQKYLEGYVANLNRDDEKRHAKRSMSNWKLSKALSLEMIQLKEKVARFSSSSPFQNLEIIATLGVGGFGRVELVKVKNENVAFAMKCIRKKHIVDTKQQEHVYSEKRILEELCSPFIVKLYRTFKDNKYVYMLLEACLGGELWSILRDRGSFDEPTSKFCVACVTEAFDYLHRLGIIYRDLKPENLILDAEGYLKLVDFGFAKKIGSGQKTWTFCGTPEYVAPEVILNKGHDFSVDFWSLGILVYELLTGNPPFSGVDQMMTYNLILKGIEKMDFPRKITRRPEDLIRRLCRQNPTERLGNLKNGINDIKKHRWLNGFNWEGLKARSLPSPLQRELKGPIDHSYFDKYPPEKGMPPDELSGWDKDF
T5 sequence (P61075 whole entry): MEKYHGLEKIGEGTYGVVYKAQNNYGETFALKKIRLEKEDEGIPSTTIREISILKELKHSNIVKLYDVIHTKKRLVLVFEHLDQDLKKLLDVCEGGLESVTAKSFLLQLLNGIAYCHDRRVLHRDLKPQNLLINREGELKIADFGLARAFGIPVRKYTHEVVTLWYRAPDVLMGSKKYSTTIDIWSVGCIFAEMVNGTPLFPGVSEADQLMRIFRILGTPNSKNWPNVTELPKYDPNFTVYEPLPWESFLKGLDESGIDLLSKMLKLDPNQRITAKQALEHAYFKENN
Sequence of PRKCE (Q02156 whole entry): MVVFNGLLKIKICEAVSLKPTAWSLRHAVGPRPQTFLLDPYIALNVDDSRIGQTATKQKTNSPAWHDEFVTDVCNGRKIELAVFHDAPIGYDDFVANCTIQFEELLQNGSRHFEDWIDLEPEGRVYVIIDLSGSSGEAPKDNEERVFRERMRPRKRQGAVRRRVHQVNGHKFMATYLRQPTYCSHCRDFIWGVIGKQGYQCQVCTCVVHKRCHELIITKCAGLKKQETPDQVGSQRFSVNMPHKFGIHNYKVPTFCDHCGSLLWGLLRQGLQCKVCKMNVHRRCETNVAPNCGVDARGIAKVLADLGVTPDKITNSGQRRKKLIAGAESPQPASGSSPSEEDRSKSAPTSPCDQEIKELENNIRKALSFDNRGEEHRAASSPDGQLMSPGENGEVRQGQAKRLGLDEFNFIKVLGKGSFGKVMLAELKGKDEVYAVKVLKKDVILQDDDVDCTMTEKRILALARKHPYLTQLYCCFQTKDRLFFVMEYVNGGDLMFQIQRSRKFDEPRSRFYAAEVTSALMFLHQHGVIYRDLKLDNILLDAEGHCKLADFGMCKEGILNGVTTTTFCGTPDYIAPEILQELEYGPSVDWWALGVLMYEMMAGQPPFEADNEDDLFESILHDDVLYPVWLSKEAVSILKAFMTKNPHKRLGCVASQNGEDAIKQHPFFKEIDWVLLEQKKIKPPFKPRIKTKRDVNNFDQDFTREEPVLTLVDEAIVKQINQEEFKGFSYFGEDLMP
T3 sequence (Q96D53 whole entry): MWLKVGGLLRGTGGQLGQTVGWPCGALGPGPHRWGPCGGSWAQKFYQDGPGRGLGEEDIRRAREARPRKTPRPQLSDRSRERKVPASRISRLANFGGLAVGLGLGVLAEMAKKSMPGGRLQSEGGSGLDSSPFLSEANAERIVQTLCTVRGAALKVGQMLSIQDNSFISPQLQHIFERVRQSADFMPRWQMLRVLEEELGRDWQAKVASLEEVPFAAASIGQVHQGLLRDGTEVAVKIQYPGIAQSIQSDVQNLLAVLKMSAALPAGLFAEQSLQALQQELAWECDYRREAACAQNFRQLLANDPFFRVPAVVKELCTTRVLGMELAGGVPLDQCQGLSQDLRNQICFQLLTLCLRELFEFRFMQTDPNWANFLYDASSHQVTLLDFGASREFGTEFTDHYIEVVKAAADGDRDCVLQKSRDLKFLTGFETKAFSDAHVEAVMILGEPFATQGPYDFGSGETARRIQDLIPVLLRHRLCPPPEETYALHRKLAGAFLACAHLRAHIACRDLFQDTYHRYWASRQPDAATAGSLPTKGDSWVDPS
T6 sequence (P23443 whole entry): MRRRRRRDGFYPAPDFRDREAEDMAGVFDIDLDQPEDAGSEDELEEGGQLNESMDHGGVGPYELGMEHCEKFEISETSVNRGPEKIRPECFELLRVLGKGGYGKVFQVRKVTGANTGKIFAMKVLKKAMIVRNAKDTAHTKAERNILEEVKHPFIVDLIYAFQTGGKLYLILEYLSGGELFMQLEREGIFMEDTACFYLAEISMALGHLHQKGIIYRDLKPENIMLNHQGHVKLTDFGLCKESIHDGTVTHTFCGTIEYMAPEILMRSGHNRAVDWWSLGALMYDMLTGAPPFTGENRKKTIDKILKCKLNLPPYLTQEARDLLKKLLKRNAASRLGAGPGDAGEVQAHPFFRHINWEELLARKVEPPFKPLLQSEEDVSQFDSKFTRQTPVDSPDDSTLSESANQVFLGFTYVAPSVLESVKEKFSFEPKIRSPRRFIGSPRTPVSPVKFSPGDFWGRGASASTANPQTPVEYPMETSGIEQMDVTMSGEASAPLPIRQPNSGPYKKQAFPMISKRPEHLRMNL
Sequence of CAMK2B (Q13554 whole entry): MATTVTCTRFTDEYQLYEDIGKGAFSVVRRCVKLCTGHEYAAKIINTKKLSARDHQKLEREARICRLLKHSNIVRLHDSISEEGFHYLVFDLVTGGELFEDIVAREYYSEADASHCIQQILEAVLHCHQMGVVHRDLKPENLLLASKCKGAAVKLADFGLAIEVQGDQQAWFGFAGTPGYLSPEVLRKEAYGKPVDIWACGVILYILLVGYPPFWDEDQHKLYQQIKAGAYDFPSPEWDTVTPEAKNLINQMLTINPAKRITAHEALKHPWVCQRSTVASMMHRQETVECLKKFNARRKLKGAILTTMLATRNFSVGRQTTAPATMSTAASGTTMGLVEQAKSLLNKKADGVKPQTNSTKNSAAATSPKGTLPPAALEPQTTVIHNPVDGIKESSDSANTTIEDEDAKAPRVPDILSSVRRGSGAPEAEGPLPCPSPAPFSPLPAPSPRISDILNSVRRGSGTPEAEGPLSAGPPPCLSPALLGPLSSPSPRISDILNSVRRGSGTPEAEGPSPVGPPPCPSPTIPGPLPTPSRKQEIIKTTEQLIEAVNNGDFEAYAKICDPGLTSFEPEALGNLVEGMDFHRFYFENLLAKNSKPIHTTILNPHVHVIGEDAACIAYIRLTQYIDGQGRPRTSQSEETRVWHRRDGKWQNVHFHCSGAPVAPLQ
Sequence of AKT3 (Q9Y243 whole entry): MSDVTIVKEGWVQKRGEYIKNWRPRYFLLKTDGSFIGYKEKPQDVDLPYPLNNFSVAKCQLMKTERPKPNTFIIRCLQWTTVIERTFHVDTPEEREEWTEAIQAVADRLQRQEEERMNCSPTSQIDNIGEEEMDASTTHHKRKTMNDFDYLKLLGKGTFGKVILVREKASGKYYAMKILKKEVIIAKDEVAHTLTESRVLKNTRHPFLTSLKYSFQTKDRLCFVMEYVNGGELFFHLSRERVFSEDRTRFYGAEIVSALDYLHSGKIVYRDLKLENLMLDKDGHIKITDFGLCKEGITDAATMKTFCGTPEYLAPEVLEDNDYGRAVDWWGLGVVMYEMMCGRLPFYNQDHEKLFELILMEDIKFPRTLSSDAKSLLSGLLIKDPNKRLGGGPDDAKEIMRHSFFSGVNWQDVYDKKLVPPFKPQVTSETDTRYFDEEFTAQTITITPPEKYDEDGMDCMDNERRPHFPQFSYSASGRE

COc1ccc(-c2cnccc2-c2cnc(NC(=O)C(C)C)s2)c(C(F)(F)F)c1 [CRT0105446, N-{5-[3-(4-Methoxy-2-trifluoromethyl-phenyl)-pyridin-4-yl]-hiazol-2-yl}-isobutyramide]
remaining binding at 10 µM [1]: 100%
remaining binding at 10 µM (ABL1-nonphosphorylated): 82%
remaining binding at 10 µM (ADCK4): 85%
remaining binding at 10 µM (AKT3): 100%
remaining binding at 10 µM (AMPK-alpha2): 3.9%
remaining binding at 10 µM (CAMK2B): 92%
remaining binding at 10 µM (EGFR(G719S)): 94%
remaining binding at 10 µM [2]: 92%
remaining binding at 10 µM (EGFR(L861Q)): 100%
remaining binding at 10 µM (INSR): 100%
remaining binding at 10 µM (IRAK4): 100%
remaining binding at 10 µM (MKNK2): 68%
remaining binding at 10 µM (NEK7): 100%
remaining binding at 10 µM (PFPK5(P.falciparum)): 100%
remaining binding at 10 µM (PIK3CA(E545K)): 97%
remaining binding at 10 µM (PRKCE): 72%
remaining binding at 10 µM (PRKCI): 81%
remaining binding at 10 µM (PRKCQ): 74%
remaining binding at 10 µM (PRKG2): 100%
remaining binding at 10 µM (RET(V804L)): 99%
remaining binding at 10 µM (S6K1): 78%
remaining binding at 10 µM (ULK1): 100%

Cc1ccc(-c2cnccc2-c2cnc(Nc3ccc(O)cc3)s2)c(Cl)c1 [CRT0105950, 4-{5-[3-(2-Chloro-4-methyl-phenyl)-pyridin-4-yl]-thiazol-2-ylamino}-phenol]
remaining binding at 10 µM [1]: 93%
remaining binding at 10 µM (ABL1-nonphosphorylated): 43%
remaining binding at 10 µM (ADCK4): 58%
remaining binding at 10 µM (AKT3): 100%
remaining binding at 10 µM (AMPK-alpha2): 2%
remaining binding at 10 µM (CAMK2B): 42%
remaining binding at 10 µM (EGFR(G719S)): 75%
remaining binding at 10 µM [2]: 66%
remaining binding at 10 µM (EGFR(L861Q)): 65%
remaining binding at 10 µM (INSR): 1%
remaining binding at 10 µM (IRAK4): 80%
remaining binding at 10 µM (MKNK2): 1.8%
remaining binding at 10 µM (NEK7): 100%
remaining binding at 10 µM (PFPK5(P.falciparum)): 84%
remaining binding at 10 µM (PIK3CA(E545K)): 100%
remaining binding at 10 µM (PRKCE): 55%
remaining binding at 10 µM (PRKCI): 79%
remaining binding at 10 µM (PRKCQ): 13%
remaining binding at 10 µM (PRKG2): 73%
remaining binding at 10 µM (RET(V804L)): 5.8%
remaining binding at 10 µM (S6K1): 41%
remaining binding at 10 µM (ULK1): 38%
